The values that follow come from US12667546B2, “Methods for manipulating cell state transitions in cancer” (AGENCY FOR SCIENCE, TECHNOLOGY AND RESEARCH, priority 2018, dated 2026).

Assay [1] deals with NAMEC8. Briefly: Expression of EMT and lineage markers (qRT-PCR, immunoblot, immunofluorescence) in NAMEC8. In kind it is cell-based, human. As to the method: (§1) Cells were rinsed twice in ice-cold PBS. Total RNA was extracted using Trizol (Invitrogen) and column-purified with RNeasy kits (Qiagen). cDNA synthesis was performed with 500 ng of total RNA at 37° C. for 2 h using the SuperScript III First-Strand Synthesis System (Thermo Fisher Scientific), and subsequently diluted 5-fold. mRNA levels were measured with gene-specific primers listed below using the ABI Prism 7900HT Sequence Detection System 2.2 (Applied Biosystems). Results were normalized to GAPDH and analyzed using SDS 2.2 software.
Cells were harvested and scraped from culture dishes in ice-cold PBS. They were then centrifuged at 12000 rpm for 5 min at 4° C. The pellets were then snap frozen in liquid nitrogen or lysed in ice-cold RIPA lysis buffer (Thermo Scientific) and left on ice for 30 min. Subsequently, the lysates were centrifuged at 12000 rpm for 10 min at 4° C. The supernatants were then aspirated and placed in fresh tubes. Protein concentrations were determined using Coomaisse Blue. 50-80 μg total protein was mixed with NuPAGE™ LDS sample buffer and heated at 70° C. for 10 min. Samples were loaded into NuPAGE™ 4-12% Bis-Tris gels (precast polyacrylamide gel; Invitrogen™). Gel electrophoresis was done at 200V for 1.5 h and then blotted onto nitrocellulose membranes (Trans-Blot Turbo™ transfer pack; Bio-Rad). The membranes were blocked with 5% skimmed milk in Tris-buffered saline (TBS; 1st BASE) with 0.1% Tween-20 (Santa Cruz), and then incubated with primary antibodies overnight at 4° C. Thereafter, the membranes were incubated with a horseradish peroxidase (HRP)-conjugated secondary antibody at room temperature for one hour. Finally, the immunoreactive proteins were visualized by using an enhanced chemiluminescent (ECL) reagent (Thermo Scientific, 34075) with the Chemidoc™ Imager (Bio-Rad, 17001401).
Cell cultures were fixed in 4% paraformaldehyde and permeabilized with 0.25% Triton X-100, followed by blocking with 1% bovine serum albumin in PBST. Cells were incubated in specific primary antibodies, followed by the appropriate secondary antibodies conjugated with Alexa Fluor-488 or -594 (Molecular Probes). Cell nuclei were then stained with DAPI and then viewed and imaged with an Axio Observer D1 epifluorescence microscope with a built-in AxioCamMR3 camera (Zeiss), using the optimal filters and 100-200× magnifications.
On the technique in general: Quantitative PCR measures a nucleic acid by following its amplification.

Assay [2] has as its system MCF7-Ras. Briefly: Tumor growth of ex vivo pre-treated MCF7-Ras injected subcutaneously. The settings on record: ex vivo treatment before injection. Format: in vivo, NSG mice. Here is the method:
All animal experiments were approved by the Agency for Science Technology and Research Singapore-Biological Resource Centre IACUC (Protocol number 140940). For pre-treated SUM159 and MCF7-Ras cells, 1×10^6 cells were suspended in 100 μl media containing 50% matrigel and injected subcutaneously into both flanks of female NSG mice. The NSG mice were checked for tumor by palpation once a week and tumors were harvested when they reached ˜15 mm in diameter. For treatment in NSG mice, 1×10^5 NAMEC8-Ras cells were suspended in 100 μl media containing 50% matrigel and injected subcutaneously into both flanks of NSG mice. The NSG mice were checked for tumor formation by palpation and when tumors were about 3 mm, mice were randomized into two groups: vehicle (5% DMSO in corn oil) and treatment (Bexarotene, 100 mg/kg/day oral dosing). Tumor size was measured every week using Vernier calipers and mice were sacrificed when tumors reached ˜15 mm or after ˜4 weeks of treatment. For patient-derived cells, 2×10^6 cells were injected subcutaneously per site in NSG mice.

Assay [3] deals with NAMEC8-SERPINE1prom-Luc cells. Briefly: Renilla-luciferase (constitutive CMV promoter) readout for cell numbers. Format: cell-based, human. The settings on record: Homo sapiens, 72 h, primary screen; Renilla as readout for cell numbers; relative to DMSO; read-out: % Avr Renilla from DMSO.
Assay [4] relates to NAMEC8, SUM159 and BC2.2. Briefly: Oxygen consumption rate with palmitate (Seahorse). Format: cell-based, human. The settings on record: supplemented with palmitate.
Procedure: FAO rate was measured using the mitochondrial stress test on the XF96 analyzer (Seahorse Bioscience) according to manufacturer's instructions. Cells were seeded in 96well XF96 cell culture plates at a density of 9000 cells/well in complete media. Cells were then incubated with XF modified DMEM assay medium (Seahorse Bioscience) supplemented with 1 mM glutamine, 0.5 mM glucose, 1% FBS and 0.5 mM carnitine the next day for 18 h. On the day of the assay, cells were incubated with FAO assay medium (KHB: 111 mM NaCl, 4.7 mM KCl, 1.25 mM CaCl2), 2 mM MgSO4, 1.2 mM NaH2 PO4 supplemented with 2.5 mM glucose, 0.5 mM carnitine, 5 mM HEPES, adjusted to pH7.4) 45 min prior to the assay in a non-CO2 incubator. Seahorse XF Cell Mito Stress Test compounds (2 μM oligomycin, 2 μM FCCP, 2 μM rotenone). […] Just prior to starting the assay, XF Palmitate-BSA FAO substrate or BSA was added to the cells. Plate was then put into the XF96 analyzer and the XF Cell Mito Stress Test was run using the recommended protocol. Rate of FAO was calculated by the difference in maximal respiration when Palmitate-BSA FAO substrate was supplemented relative to BSA control.
The subject of assay [5] is NAMEC8. Briefly: Cell morphology of treated NAMEC8. The settings on record: bexarotene, TTNPB, SGC-CBP30, UNC0642, A-485 1 μM, LLY-283, GSK591 20 nM, C-IN-1 500 nM. In kind it is cell-based, human. Here is the method:
Human mammary epithelial cell lines (HMLE) were generated as described and immortalized using retroviral vectors to express the catalytic subunit of the human telomerase enzyme, hTERT and the SV-40 Large T antigen. NAMEC8 was generated as described. Briefly, HMLE cells were grown to 50% confluency, followed by differential trypsinization for 1 minute with 0.05% trypsin. Detached cells were carefully collected and re-plated at approximately 200 cells per well of a 24-well plate. Upon expansion, wells were screened for populations that were morphologically mesenchymal and can be stably propagated. Clonal and non-clonal NAMEC cell lines were generated. NAMEC8 is a non-clonal line derived from at least 200 mesenchymal cells. HMLE cells and NAMECs were maintained in MEGM (Lonza).

Assay [6] concerns SUM159 PACR cells. Briefly: Mammosphere assay, SUM159 PACR cells. In kind it is cell-based, human.
Assay [7] deals with NAMEC8 and BC2.2. Kind of assay: Gene expression of ER target genes. Format: cell-based, human. Here is the method:
as §1

For assay [8], the system named is SUM159 PACR cells. Briefly: Morphology and EMT/lineage markers in SUM159 PACR cells. Format: cell-based, human. Here is the method: as §1
Assay [9] relates to NAMEC8. Briefly: Mammosphere assay, NAMEC8. The settings on record: NAMEC8. In kind it is cell-based, human. As to the method: For mammosphere culture, cells were seeded onto 96-well ultralow-adherence plates at 700 cells/well in Mammocult medium (Stem Cell Technologies) supplemented with 4 μg/ml heparin, 0.5 μg/ml hydrocortisone and 1% methylcellulose. Spheres (>100 μm) were counted at 7-10 days later.

Assay [10] relates to Estrogen response element (ERE)-luciferase reporter in NAMEC8. Briefly: ERE-luciferase activity assay. Format: cell-based, human. As to the method: ERE luciferase construct was kindly provided by Alan Prem Kumar, CSI, Singapore. To measure the ERE-luciferase activity, cells were seeded 24 h before transfection. ERE-luciferase (1 μg) and NSV-Renilla (0.1 μg) were packaged using Lipofectamine 2000 and transfected into NAMEC8. 24 h post-transfection, cells were reseeded into 96 well plates for drug treatment. Firefly and Renilla luciferase activities were measured with the Dual-Glo Luciferase System (Promega) 24 h post-treatment.

Assay [11] relates to SUM159. Briefly: Expression of EMT and lineage markers in SUM159. Format: cell-based, human. As to the method:
as §1
Cells were harvested and scraped from culture dishes in ice-cold PBS. They were then centrifuged at 12000 rpm for 5 min at 4° C. The pellets were then snap frozen in liquid nitrogen or lysed in ice-cold RIPA lysis buffer (Thermo Scientific) and left on ice for 30 min. Subsequently, the lysates were centrifuged at 12000 rpm for 10 min at 4° C. The supernatants were then aspirated and placed in fresh tubes. Protein concentrations were determined using Coomaisse Blue. 50-80 μg total protein was mixed with NuPAGE™ LDS sample buffer and heated at 70° C. for 10 min. Samples were loaded into NuPAGE™ 4-12% Bis-Tris gels (precast polyacrylamide gel; Invitrogen™). Gel electrophoresis was done at 200V for 1.5 h and then blotted onto nitrocellulose membranes (Trans-Blot Turbo™ transfer pack; Bio-Rad). […]

“Also recorded” adds a separate entry of the source.

Regarding `C=C(c1ccc(C(=O)O)cc1)c1cc2c(cc1C)C(C)(C)CCC2(C)C` [Bexarotene], the “MET phenotype: induction and durability after drug withdrawal” value in [1] (drugs removed for at least seven days) was “gradually reverted to a more mesenchymal cell phenotype; also recorded: could cause an MET”. For the same compound, the “expression of EMT and basal/luminal markers” value in [1] (transcript and protein) is “downregulation of mesenchymal signature markers (ZEB1, SERPINE1, FN1, SLUG) and the concomitant gain of epithelial marker CDH1”. Moreover, the tumor cell growth entry in assay [2] is “no impact on the tumor cell growth was observed”. The viability at 10 µM in assay [3] was determined as 87.5%. Moreover, the “oxygen consumption rate (OCR)” value in [4] was “lower OCR when supplemented with palmitate”. Also, the cell morphology result in assay [5] was “dramatic change in morphology from scattered, spindle and fibroblastic-like cells to an epithelial-like morphology”. Besides, the mammosphere-forming ability entry in assay [6] is “reduced mammosphere-forming ability”. Besides, in assay [7], the “expression of ER target genes (ABCA3, NRIP1, TFF1, CREB1)” value is recorded as “strongly elevated”. The “phenotype (morphology, epithelial and luminal markers)” value in assay [8] is on record as “changed from a mesenchymal-like to an epithelial-like phenotype”. In addition, the “mammosphere formation after drug withdrawal” value in assay [9] is given as “partial reestablishment of mammosphere-forming ability”. For the same compound, the ERE-luciferase reporter activity entry in [10] is listed as “increased”. Also, in assay [11], the “expression of EMT and lineage markers / epithelial features” value is “downregulation of mesenchymal signature markers (ZEB1, SERPINE1, FN1, SLUG) and the concomitant gain of epithelial marker CDH1”.
